Measured values as given in article PMC8283790, “Inhibitory Effect of Puroindoline Peptides on Campylobacter jejuni Growth and Biofilm Formation” (Frontiers in Microbiology, 2021).
In brackets after ≈: the same amount, converted by molar mass. Where two headings read alike, the source gives them in different places. Where a SMILES comes first, the peptide text is derived from it.

Legend:
C. jejuni strain F38011 = assay: microbe, parasite or virus in culture; format: cell-based, Campylobacter jejuni; settings: for MIC: CLSI broth microdilution, MH broth, ~5 × 10^4 bacteria/well, 37°C microaerobic
E. coli O157:H7 = format: cell-based, Escherichia coli; settings: CLSI broth microdilution, MH broth, 37°C aerobic, 24 h, OD595
Procedure: (§1) C. jejuni clinical strains 81-176 and F38011 were cultured every 24 to 48 h on Mueller-Hinton (MH) agar containing 5% citrated bovine blood (MH-blood agar) or in MH broth in a shaking orbital incubator with microaerobic conditions (5% O2, 10% CO2, 85% N2) at 37°C. The generic isolates of E. coli O157:H7, L. monocytogenes, and Salmonella enterica serovar Typhimurium (S. Typhimurium) were cultured on LB agar plates in an aerobic chamber at 37°C, and methicillin-resistant S. aureus (MRSA) were cultured on an MH-blood agar plate in an aerobic chamber at 37°C.
(§2) Two-fold serial dilutions were made. The bacterial cultures were grown overnight in MH broth under the appropriate conditions, pelleted by centrifugation, and suspended in MH broth at 5 × 10^6 CFU/mL. Ten microliters of bacterial suspension (∼5 × 10^4 bacteria) was used to inoculate every well except the media control wells in 96-well microtiter plate. The plate was incubated in an orbital shaker at 37°C in a microaerobic condition for 48 h for C. jejuni strains or in aerobic conditions for 24 h for other bacteria. After incubation, the optical density was determined using a 96-well plate reader (BioTek Instruments Inc., Winooski, VT, United States) at 595 nm (OD595). […] The dose-response curves were created by log-transforming the OD595 readings. […]

S. Typhimurium = format: cell-based, Salmonella enterica serovar Typhimurium; settings: CLSI broth microdilution, MH broth, 37°C aerobic, 24 h, OD595
Procedure: as §1, §2

MRSA = format: cell-based, Staphylococcus aureus; settings: CLSI broth microdilution, MH broth, 37°C aerobic, 24 h, OD595
Procedure: as §1, §2

L. monocytogenes = format: cell-based, Listeria monocytogenes; settings: CLSI broth microdilution, MH broth, 37°C aerobic, 24 h, OD595
Procedure: as §1, §2

[1] = tested on: sheep red blood cells (SRBCs); assay: Hemolysis assay; format: cell-based; settings: ~10^8 cells/mL, 60 min, 37°C, absorbance 540 nm; 100% = 1% Triton X-100
Procedure: The potential toxicity of the peptides was determined using a hemolysis assay. Briefly, SRBCs (Hardy Diagnostics, Santa Monica, CA, United States) were washed three times with 1× PBS. Aliquots containing approximately 10^8 cells/mL were incubated with different concentrations of the peptides for 60 min at 37°C in a 96-well tray. The plates were then centrifuged, and the absorbance of each supernatant was measured at 540 nm. Zero hemolysis (blank) and 100% hemolysis were determined in phosphate buffer and 1% Triton X-100, respectively.

C. jejuni strain 81-176 [2] = settings: C. jejuni 81-176, 48 h; for MIC: CLSI broth microdilution, MH broth, ~5 × 10^4 bacteria/well, 37°C microaerobic, OD595
INT 407 cells [3] = assay: Lactate dehydrogenase (LDH) cytotoxicity assay; format: cell-based, human
Procedure: (§3) The toxicity of the puroindoline peptides was assessed using INT 407 epithelial cells (ATCC CCL-6) and SRBCs, as described below. The INT 407 cells (a derivative of HeLa cells) were cultured in Minimal Essential Medium (MEM) (Gibco, Grand Island, NY, United States) supplemented with 10% fetal bovine serum (FBS) and 1 mM sodium pyruvate at 37°C in humidified condition (5% CO2).
The cytotoxicity of puroindoline peptides on INT 407 cells was monitored using the lactate dehydrogenase (LDH) activity assay kit (Millipore Sigma, Danvers, MA, United States) following the manufacturer’s guidelines. LDH is released from damaged cells into the medium. Briefly, INT 407 cells were seeded into a 96 well plate at a density of 2.5 × 10^4 cells/well in 200 μL growth media (MEM supplemented by 10% FBS) and incubated for 24 h at 37°C in humidified (5% CO2) conditions. The next day, cells were rinsed twice with MEM without FBS, and different concentrations of peptides were added. Cells were incubated for 3 h, 6 h or 24 h at 37°C. As a positive control, 0.1% Triton X-100 was used. Media only was used as a negative control. In the presence of Triton X-100, cells release maximum LDH. After the appropriate incubation point, the tissue culture plate was centrifuged at 2000 rpm for 5 min. […] Absorbance was recorded at 450 nm (OD450) on a BioTek 96-well plate reader.

INT 407 cells [4] = assay: MTT cell viability assay; format: cell-based, human; settings: for Concentration reducing cell viability (MTT, OD570): INT 407 cells, 24 h
Procedure: as §3
The viability of INT 407 cells was assessed by MTT assay according to the manufacturer’s recommendations (Roche Diagnostics, Mannheim, Germany). Briefly, INT 407 cells were seeded into a 96-well plate at a density of 2.5 × 10^4 cells/well in 200 μL of growth media (MEM supplemented by 10% FBS) and incubated for 24 h at 37°C under humidified conditions. Cells were rinsed twice with MEM without FBS, and different concentrations of peptides were added into the well. Triton X-100 was added as a positive control and growth medium only was added as a negative control. After treatment, the cells were incubated for different time points (3, 6, or 24 h) at 37°C in a humidified condition. At the end of each experiment, 100 μL of culture medium was removed into a new 96-well plate, and 25 μL of MTT stock solution was added into each well. The plates were incubated for 4 h at 37°C. Then, 100 μL of the solubilizing solution was added to each well, and the plate was incubated overnight at 37°C. After cooling, the plates were read at 570 nm (OD570) on a BioTek 96-well plate reader.

blood = blood hemolysis assay; ref Jing et al. (2003); cited from earlier work
Text: (§4) The cytotoxicity and hemolytic activity of PinA has been addressed in this study using human epithelial INT 407 cells and SRBCs. INT 407 cells were chosen for this study as these cells grow rapidly and easy to maintain in culture media. INT 407 cells have been used extensively in C. jejuni research for several decades ([Negretti et al., 2019]). […] The first report on the cytotoxicity of puroindolines was from [Jing et al. (2003)], where th ...

red blood cells = settings: ref Capparelli et al. (2007); cited from earlier work
Text: as §4

[5] = Solubility of the synthetic peptides; format: physicochemical; settings: DMSO and water
C. jejuni 81-176 biofilm = assay: Biofilm formation, crystal violet staining; format: cell-based, Campylobacter jejuni; settings: inoculum OD540 0.1, 72 h, 37°C microaerobic, no agitation
C. jejuni strain 81-176 [6] = assay: microbe, parasite or virus in culture

| Compound | MIC (C. jejuni strain F38011; 48 h, OD595) [µg/mL] | MIC (E. coli O157:H7) [µg/mL] | MIC (S. Typhimurium) [µg/mL] | MIC (MRSA) [µg/mL] | MIC (L. monocytogenes) [µg/mL] | Concentration showing hemolysis of SRBCs [1] [µg/mL] | MIC (C. jejuni strain 81-176 [2]) [µg/mL] | Concentration reducing cell viability (MTT, OD570) (INT 407 cells [4]) [µg/mL] | Concentration up to which no hemolytic activity was identified (blood) [µg/mL] | Concentration up to which no hemolytic activity was displayed (red blood cells) [µg/mL] | other results |
| --- | --- | --- | --- | --- | --- | --- | --- | --- | --- | --- | --- |
| CSCC[C@H](NC(=O)[C@@H](N)[C@@H](C)O)C(=O)N[C@@H](CCCCN)C(=O)N[C@@H](CC(=O)O)C(=O)N[C@@H](Cc1ccccc1)C(=O)N1CCC[C@H]1C(=O)N[C@H](C(=O)N[C@H](C(=O)N[C@@H](Cc1c[nH]c2ccccc12)C(=O)N[C@@H](CCCNC(=N)N)C(=O)N[C@@H](Cc1c[nH]c2ccccc12)C(=O)NCC(=O)N[C@@H](CCCCN)C(=O)N[C@@H](Cc1c[nH]c2ccccc12)C(=O)NCC(=O)N[C@@H](CCCCN)C(=O)NCC(=O)NCC(=O)O)[C@@H](C)O)C(C)C [PinA mutant] (H-TMKDFPVTWRWGKWGKGG-OH) | >512 | >512 | >512 | >512 | >512 | ≥ 256 | >512 | – | – | – | – |
| CSCC[C@H](NC(=O)[C@@H](N)[C@@H](C)O)C(=O)N[C@@H](CCCCN)C(=O)N[C@@H](CC(=O)O)C(=O)N[C@@H](Cc1ccccc1)C(=O)N1CCC[C@H]1C(=O)N[C@H](C(=O)N[C@H](C(=O)N[C@@H](Cc1c[nH]c2ccccc12)C(=O)N[C@@H](CCCNC(=N)N)C(=O)N[C@@H](Cc1c[nH]c2ccccc12)C(=O)N[C@@H](Cc1c[nH]c2ccccc12)C(=O)N[C@@H](CCCCN)C(=O)N[C@@H](Cc1c[nH]c2ccccc12)C(=O)N[C@@H](Cc1c[nH]c2ccccc12)C(=O)N[C@@H](CCCCN)C(=O)NCC(=O)NCC(=O)O)[C@@H](C)O)C(C)C [PinA] (H-TMKDFPVTWRWWKWWKGG-OH) | – | – | – | – | – | ≥ 256 | – | 256 | 1000 | 150 | Cytotoxicity (LDH release), in words (INT 407 cells [3]; INT 407 cells, 3, 6 and 24 h, MEM without FBS, Triton X-100 at 0.1%): cytotoxic to INT 407 cells at higher concentrations |
| CSCC[C@H](NC(=O)[C@@H](N)[C@@H](C)O)C(=O)N[C@@H](CCCCN)C(=O)N[C@@H](CC(=O)O)C(=O)N[C@@H](Cc1ccccc1)C(=O)N1CCC[C@H]1C(=O)N[C@H](C(=O)N[C@H](C(=O)N[C@@H](Cc1c[nH]c2ccccc12)C(=O)N1CCC[C@H]1C(=O)N[C@H](C(=O)NCC(=O)N[C@@H](Cc1c[nH]c2ccccc12)C(=O)N[C@@H](Cc1c[nH]c2ccccc12)C(=O)NCC(=O)NCC(=O)NCC(=O)O)[C@@H](C)O)[C@@H](C)O)C(C)C [PinB mutant] (H-TMKDFPVTWPTGWWGGG-OH) | >512 | >512 | >512 | >512 | >512 | ≥ 256 | >512 | – | – | – | – |
| CSCC[C@H](NC(=O)[C@@H](N)[C@@H](C)O)C(=O)N[C@@H](CCCCN)C(=O)N[C@@H](CC(=O)O)C(=O)N[C@@H](Cc1ccccc1)C(=O)N1CCC[C@H]1C(=O)N[C@H](C(=O)N[C@H](C(=O)N[C@@H](Cc1c[nH]c2ccccc12)C(=O)N1CCC[C@H]1C(=O)N[C@H](C(=O)N[C@@H](CCCCN)C(=O)N[C@@H](Cc1c[nH]c2ccccc12)C(=O)N[C@@H](Cc1c[nH]c2ccccc12)C(=O)N[C@@H](CCCCN)C(=O)NCC(=O)NCC(=O)O)[C@@H](C)O)[C@@H](C)O)C(C)C [PinB] (H-TMKDFPVTWPTKWWKGG-OH) | – | – | – | – | – | ≥ 256 | – | > 512 | 1000 | 50 | Concentration showing cytotoxicity (LDH release) (INT 407 cells [3]; INT 407 cells, any time point (3, 6, 24 h)): > 512 µg/mL; Solubility (in words) [5]: soluble in DMSO, an organic solvent, but not in water |
| CC[C@H]1OC(=O)[C@H](C)[C@@H](O[C@H]2C[C@@](C)(OC)[C@@H](O)[C@H](C)O2)[C@H](C)[C@@H](O[C@@H]2O[C@H](C)C[C@H](N(C)C)[C@H]2O)[C@](C)(O)C[C@@H](C)C(=O)[C@H](C)[C@@H](O)[C@]1(C)O [erythromycin] | – | – | – | – | – | – | – | – | – | – | MIC (C. jejuni strain F38011; Campylobacter jejuni, 48 h, OD595, read-out: MIC): 0.188 µg/mL (≈ 0.255 µM); IC50 (C. jejuni strain F38011; Campylobacter jejuni, read-out: IC50 (concentration at which 50% of bacteria is inhibited), broth microdilution, 48 h, ten concentration points, min. three biological replicates): 0.0405 µg/mL (≈ 0.0552 µM); IC90 (C. jejuni strain F38011; Campylobacter jejuni, read-out: IC90 (90% of maximal inhibitory concentration), from slope of concentration-effect curve, 48 h): 0.0657 µg/mL (≈ 0.0895 µM); MBC (C. jejuni strain F38011; Campylobacter jejuni, wells spotted on MH agar, 24–48 h, no growth (>99.9% reduction)): 0.25 µg/mL (≈ 0.341 µM); IC10 (10% of maximal inhibitory concentration) (C. jejuni strain F38011; from slope of concentration-effect curve, 48 h): 0.0249 µg/mL; Concentration inhibiting biofilm formation (C. jejuni 81-176 biofilm): ≥ 0.25 µg/mL; IC10 (10% of maximal inhibitory concentration) (C. jejuni strain 81-176 [2]; from slope of concentration-effect curve): 0.0254 µg/mL; MBC (C. jejuni strain 81-176 [6]; Campylobacter jejuni, 81176): 0.125 µg/mL (≈ 0.17 µM); MIC (C. jejuni strain 81-176 [6]; Campylobacter jejuni, 81176, 48 h): 0.125 µg/mL (≈ 0.17 µM); IC50 (C. jejuni strain 81-176 [6]; Campylobacter jejuni, 81176, 48 h, read-out: IC50 (concentration at which 50% of bacteria is inhibited)): 0.0415 µg/mL (≈ 0.0565 µM); IC90 (C. jejuni strain 81-176 [6]; Campylobacter jejuni, 81176, 48 h, read-out: IC90 (90% of maximal inhibitory concentration)): 0.0677 µg/mL (≈ 0.0922 µM) |
| Triton X-100 [reference compound] | – | – | – | – | – | – | – | – | – | – | Cell viability (MTT, OD570), in words (INT 407 cells [4]): very low absorbance at OD570 |
